One data set concerns the target T1, human recombinant PKM2 (Homo sapiens, UniProt P14618).
T1 construct: purchased Sigma SAE0021
The experiment in a line: Pyruvate kinase enzyme-coupled (LDH/NADH) assay with recombinant PKM2. The class given is biochemical. Particulars: for AC50: recombinant human PKM2, n = 3, best-fit value ± std. error; for Emax: recombinant human PKM2, n = 3, normalized to DMSO-treated enzyme, read-out: Recombinant PKM2 Max Activation. The method, then:
(§1) Recombinant Enzyme. An enzyme-coupled assay that measures the depletion of NADH via absorbance at 340 nm and uses lactate dehydrogenase (LDH) was employed to determine the activity of pyruvate kinase (PK). To determine the AC50 (concentration of activator necessary to achieve half-maximal activation) of the different small molecules with PKM2, assays were conducted in a 96-well format using 200 μL/well assay volume with 10 nM human recombinant PKM2 (Sigma, St. Louis, MO, USA, Cat No. SAE0021) or PKM1 (Sigma, […], Cat No. SRP0415), differing concentrations of activator, 0.5 mM PEP, 1 mM ADP, 0.2 mM NADH, and 8 U of LDH in a buffer of 50 mM Tris-HCl (pH 7.4), 100 mM KCl, and 5 mM MgCl2 as previously described. A SPECTROstar Omega plate reader (BMG LABTECH Inc., Cary, NC, USA) monitored absorbance at 340 nm. The MARS software suite was utilized to determine initial velocities. Data were normalized to DMSO (dimethyl sulfoxide)-treated enzyme activity, as previously described.

A short description of data set [1]: Aqueous solubility (Eurofins Panlabs, HPLC-UV/Vis). The data set is classed as physicochemical. Particulars: aqueous buffer, kinetic from dmso stock; PBS, pH 7.4, 24 h, room temperature (Table 1). The method, then:
(§2) In brief, each compound was tested at a concentration of 200 μM in PBS, pH 7.4, and room temperature. […] The area of the principal peak in a calibration standard for each compound (200 μM) in organic solvent (60/40 v/v% methanol: water) was compared to the area of the corresponding peak in the PBS sample [42]. Compounds 16–21 underwent solubility testing at Analiza (Cleveland, OH, USA), a contract research organization. Five hundred microliters of PBS, pH 7.4 was added to each amount of compound provided. The samples were vortexed briefly and then placed on a rotary shaker at 200 RPM for 24 h at ambient temperature. Thereafter, the samples were vacuum filtered through a 0.45-micron membrane, and the filtrates were injected into a nitrogen detector for quantification. The nitrogen detector was calibrated using standards, and the filtrates were quantitated based on the calibration curve.

Data set [2] addresses T2, pyruvate kinase (PK) activity in 661W cells (Mus musculus, UniProt P52480).
T2 construct: endogenous in cells; host or cells: 661W photoreceptor-like cells
As to the kind of experiment: PK activity in 661W cell lysates after 2 h incubation with activator. The class given is cell-based. Particulars: for AC50: n = 3; for Emax: n = 3, read-out: 661W Cells Max Activation. How it is done:
The potency and efficacy of each compound, 1 through 5, was assessed with recombinant human PKM2 using an enzyme-coupled assay that uses lactate dehydrogenase and measures the reduction in NADH via absorbance at 340 nm. […] To assess the ability of this pyridazinoindolone series of compounds to cross cellular membranes and increase PK activity, we utilized 661W cells, which are immortalized photoreceptor-like cells that express cone markers.
Cell culture. Next, 661W cells were incubated with either DMSO or different concentrations of small-molecule PKM2 activator for 2 h, lysed and homogenized in RIPA Lysis and Extraction Buffer (Thermo Fisher, Waltham, MA, USA, Cat No. 89900) with protease inhibitors (Complete-Mini, Roche Diagnostics, Indianapolis, IN, USA), and centrifuged at 10,000 rpm for 10 min to remove cellular debris. The supernatant (4–8 μL) was then used to assess the pyruvate kinase activity as described above. The total protein content was determined using the Pierce BCA protein assay kit (Thermo Fisher, Waltham, MA, USA, Cat No. 23225) with the Pierce™ Bovine Serum Albumin Standard Pre-Diluted Set (Thermo Fisher, Waltham, MA, USA, Cat No. 23208) and used to normalize activity as described previously.

Data set [3] can be described thus: Aqueous solubility (Analiza, nitrogen detector). The class given is physicochemical. To be noted: aqueous buffer, thermodynamic from solid; PBS, pH 7.4, 24 h, ambient temperature (Table 3). How it is done:
as §2

Data set [4] deals with T3, pyruvate kinase (PK) activity in rat retina (Rattus norvegicus, UniProt P11980).
T3 construct: the retina from each rat eye was dissected from the RPE-choroid, homogenized, and lysed; from tissue; host or cells: retina of adult Brown-Norway rats
The experiment in a line: PK activity in rat retina after intravitreal injection. The class given is in vivo. Particulars: intravitreal injection in rats. How it is done: The intravitreal injection of medications has revolutionized how numerous retinal diseases are treated and are ever-increasing in ophthalmic clinical practice. Therefore, to assess the ability of these small molecules to activate PK in vivo in the rat retina, we utilized this well-accepted drug delivery method. Two microliters of each respective compound at 850 μM or DMSO were intravitreally injected into rat eyes. The vitreous volume of the rat eye was assumed to be 15 μL, giving a final intravitreal concentration of approximately 100 μM for each compound after injection. Retinas were harvested four hours after injection, lysed, and assayed for PK activity as previously described. The eyes treated with DMSO served as the control upon which PK activation was based.
(§3) Two microliters of each respective compound at 8.5 μM (final vitreous concentration of 1 μM) or DMSO was intravitreally injected into rat eyes, and the PK activity was assessed four hours later.
Animals. Intravitreal injections of various small-molecule PKM2 activators or vehicle (DMSO) were performed in Brown-Norway adult rats. The rats were anesthetized with ketamine (90 mg/mL) and xylazine (10 mg/mL) and their pupils dilated with topical phenylephrine (2.5%) and tropicamide (1%) as described previously. A sclerotomy was created with a 25-gauge microvitreoretinal blade (Walcott Rx Products, Ocean View, NJ, USA) just posterior to the limbus. A blunt 35-gauge cannula was inserted through this sclerotomy into the vitreous cavity to deliver 2 μL of different concentrations of small-molecule activator or DMSO. This injection volume produces minimal reflux with adequate reproducibility. Fifteen microliters of vitreous volume was assumed in rats to calculate the intravitreal concentrations of the compound after injection. As we have previously described, left eyes were treated with small-molecular activator, while right eyes were treated with DMSO, which served as the control upon which pyruvate kinase activation was based. Four hours later, the retina from each rat eye was dissected from the RPE-choroid, homogenized, and lysed in RIPA Lysis and Extraction Buffer with protease inhibitors. The pyruvate kinase (PK) activity assay, as described above, was performed using 4 to 8 microliters of rat retinal lysate, similar to what we and others have previously described. Analogous to the cell culture assays, the total protein of the lysate was used to normalize pyruvate kinase activity.

Another data set deals with T4, recombinant PKM1 (Homo sapiens, UniProt P14618).
T4 construct: purchased Sigma SRP0415
As to the kind of experiment: Pyruvate kinase enzyme-coupled assay with recombinant PKM1. The class given is biochemical. Particulars: increasing concentrations (Figure 6b). The method, then:
as §3, §1

The mark [5] stands for this setting: final vitreous concentration 1 μM, 4 h (Figure 6a).

The text below walks through data of publication PMC10222839, “Development of Novel Small-Molecule Activators of Pyruvate Kinase Muscle Isozyme 2, PKM2, to Reduce Photoreceptor Apoptosis” (Pharmaceuticals, 2023).

≈ marks a conversion by molar mass, not a printed value. Bounds are passed on as bounds.

T2 sequence (P52480 whole entry): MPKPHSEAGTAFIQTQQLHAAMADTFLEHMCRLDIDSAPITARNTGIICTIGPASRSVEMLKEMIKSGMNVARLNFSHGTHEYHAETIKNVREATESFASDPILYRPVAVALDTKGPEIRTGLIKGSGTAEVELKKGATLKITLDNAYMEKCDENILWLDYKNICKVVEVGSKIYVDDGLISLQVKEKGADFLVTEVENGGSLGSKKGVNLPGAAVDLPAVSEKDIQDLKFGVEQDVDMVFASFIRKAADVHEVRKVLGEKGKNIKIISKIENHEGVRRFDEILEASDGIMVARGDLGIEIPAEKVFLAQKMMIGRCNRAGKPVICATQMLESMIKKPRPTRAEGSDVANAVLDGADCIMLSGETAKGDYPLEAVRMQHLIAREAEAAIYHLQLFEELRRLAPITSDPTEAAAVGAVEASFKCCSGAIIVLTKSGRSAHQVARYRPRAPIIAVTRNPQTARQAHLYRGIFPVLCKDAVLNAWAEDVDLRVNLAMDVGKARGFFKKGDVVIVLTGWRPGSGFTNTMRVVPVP
T3 sequence (P11980 1-531 isoform P11980-2): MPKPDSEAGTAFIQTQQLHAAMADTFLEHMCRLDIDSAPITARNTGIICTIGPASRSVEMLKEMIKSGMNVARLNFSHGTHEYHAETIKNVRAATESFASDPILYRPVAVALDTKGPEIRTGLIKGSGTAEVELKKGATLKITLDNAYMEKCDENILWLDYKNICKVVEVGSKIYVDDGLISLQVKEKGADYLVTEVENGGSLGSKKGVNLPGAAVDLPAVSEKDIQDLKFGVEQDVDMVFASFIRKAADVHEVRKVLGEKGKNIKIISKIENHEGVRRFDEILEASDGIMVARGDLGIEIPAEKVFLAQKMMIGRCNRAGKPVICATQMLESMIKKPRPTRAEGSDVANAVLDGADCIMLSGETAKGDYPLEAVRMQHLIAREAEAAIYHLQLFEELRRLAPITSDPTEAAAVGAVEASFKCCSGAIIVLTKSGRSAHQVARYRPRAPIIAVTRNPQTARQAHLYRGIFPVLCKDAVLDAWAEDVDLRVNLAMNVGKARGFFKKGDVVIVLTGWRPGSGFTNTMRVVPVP
T1 sequence (P14618 whole entry): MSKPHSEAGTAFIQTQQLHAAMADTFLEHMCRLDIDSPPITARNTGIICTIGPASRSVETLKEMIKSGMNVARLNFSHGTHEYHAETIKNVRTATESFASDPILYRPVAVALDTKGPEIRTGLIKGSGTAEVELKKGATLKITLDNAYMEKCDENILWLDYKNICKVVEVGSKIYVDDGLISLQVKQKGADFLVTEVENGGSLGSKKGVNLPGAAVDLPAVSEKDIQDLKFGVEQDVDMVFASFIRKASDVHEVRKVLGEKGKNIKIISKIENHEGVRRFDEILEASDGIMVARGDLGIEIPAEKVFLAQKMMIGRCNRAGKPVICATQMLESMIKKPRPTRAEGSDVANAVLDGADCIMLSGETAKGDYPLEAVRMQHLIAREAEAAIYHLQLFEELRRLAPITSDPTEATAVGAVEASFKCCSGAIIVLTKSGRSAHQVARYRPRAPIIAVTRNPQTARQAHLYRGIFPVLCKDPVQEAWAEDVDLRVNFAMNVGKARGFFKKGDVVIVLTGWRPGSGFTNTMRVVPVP
T4 sequence (P14618 1-531 isoform P14618-2): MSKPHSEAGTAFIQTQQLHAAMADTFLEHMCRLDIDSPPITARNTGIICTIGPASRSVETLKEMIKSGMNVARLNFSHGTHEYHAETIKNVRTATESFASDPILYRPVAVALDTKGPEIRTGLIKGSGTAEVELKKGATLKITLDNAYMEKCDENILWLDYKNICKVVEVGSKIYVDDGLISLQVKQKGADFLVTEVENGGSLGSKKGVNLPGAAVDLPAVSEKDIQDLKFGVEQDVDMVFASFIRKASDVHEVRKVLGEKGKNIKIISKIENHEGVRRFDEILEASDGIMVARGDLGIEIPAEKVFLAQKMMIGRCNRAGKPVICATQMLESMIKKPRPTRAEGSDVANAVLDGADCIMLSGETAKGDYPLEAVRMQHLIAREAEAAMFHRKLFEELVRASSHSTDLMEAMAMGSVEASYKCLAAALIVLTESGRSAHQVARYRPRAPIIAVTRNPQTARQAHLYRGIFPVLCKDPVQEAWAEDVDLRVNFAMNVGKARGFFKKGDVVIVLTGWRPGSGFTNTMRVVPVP

Regarding `CSc1ccc2c3cnn(Cc4cccc(N)c4)c(=O)c3n(C)c2c1` [Compound 4], the AC50 (usually the midpoint of the concentration-response curve, whichever way the signal moves) stood at 48 ± 10 nM on human recombinant PKM2 and 66 ± 19 nM in data set [2]. The figures for the Emax (at human recombinant PKM2; in data set [2]) were 216 ± 12% and 256 ± 13%, respectively. Also, in data set [1], the solubility – broadly, the concentration that dissolves in the medium under given conditions – at 24 h is below 0.01 µM.
Regarding `Cn1c2cc(CNCCO)c(F)cc2c2cnn(Cc3ccccc3F)c(=O)c21` [Compound 20], at human recombinant PKM2, the AC50 came to 62 ± 11 nM and the Emax was determined as 239 ± 12%. In data set [3], this compound had a solubility at 24 h of 462 µM (≈ 184 µg/mL). In data set [2], the activity was half-maximal at 93 ± 29 nM (AC50) and the Emax worked out at 288 ± 17%.
For `Cn1c2cc([S+](C)[O-])sc2c2cnn(Cc3cccc(N)c3)c(=O)c21` (stereo not shown) [ML-265, reference compound], the Emax at human recombinant PKM2 amounted to 292 ± 21%; in data set [4] (rat, increasing concentrations, retina 4 h, normalized to DMSO, read-out: in vivo PK activity (maximum activation)), 202 ± 8%; in data set [2] it was 370 ± 21%. Moreover, the concentration at half-maximal activity (AC50) in data set [4] (increasing concentrations, retina 4 h, read-out: in vivo AC50) worked out at 866 ± 176 nM; in data set [2] it was 108 ± 32 nM.
Regarding `Cc1cccc(Cn2ncc3c4cc(F)c(CN5CCCC5)cc4n(C)c3c2=O)n1` [Compound 18], on human recombinant PKM2, the AC50 amounted to 64 ± 4 nM and the Emax is 245 ± 5%. In data set [3], this compound registered a solubility at 24 h of 858 µM (≈ 348 µg/mL). Further, the “PK activity increase, less than that observed with ML-265” value in data set [4] (setting [5]) was 20–30%. Moreover, in data set [2], the AC50 is 106 ± 27 nM and the Emax came out at 257 ± 12%.
In the case of `Cc1cccc(Cn2ncc3c4cc(F)c(CNCCO)cc4n(C)c3c2=O)n1` [Compound 17], at human recombinant PKM2, the AC50 was 58 ± 5 nM and the Emax is 213 ± 6%. Also, in data set [3], the solubility at 24 h was 1120 µM (≈ 442 µg/mL). Besides, in data set [2], the AC50 came to 1620 ± 428 nM and the Emax was 430 ± 33%.
`Cc1ccc2c3cnn(Cc4cccc(N)c4)c(=O)c3n(C)c2c1` [Compound 5]: at human recombinant PKM2, the AC50 was 61 ± 12 nM and the Emax turned out to be 249 ± 14%. The same compound registered a solubility at 24 h in data set [1] of 12.7 µM (≈ 4.04 µg/mL). In data set [2], half-maximal activity (AC50) was put at 132 ± 47 nM and the Emax is 236 ± 16%.
On to `Cn1c2cc(CN3CCNCC3)c(F)cc2c2cnn(Cc3ccccc3F)c(=O)c21` [Compound 21], for which the AC50 came to 66 ± 10 nM on human recombinant PKM2 and 72 ± 24 nM in data set [2]. The values for the Emax (on human recombinant PKM2; in data set [2]) were 339 ± 16% and 299 ± 18%, respectively. The solubility at 24 h in data set [3] turned out to be 334 µM (≈ 141 µg/mL). In addition, the “PK activation in rat retina compared with ML-265” value in data set [4] (setting [5]) is “approximately a third of the retinal PK activation as that achieved with ML-265”.
Turning to `Cc1cccc(Cn2ncc3c4cc(F)c(CN(C)C)cc4n(C)c3c2=O)n1` [Compound 19], at human recombinant PKM2, the AC50 stood at 83 ± 9 nM and the Emax was found to be 266 ± 9%. For the same compound, the “activation of recombinant PKM1” value on recombinant PKM1 is given as “did not activate”. For the same compound, the “PK activity increase, less than that observed with ML-265” value in data set [4] (setting [5]) is reported as 20–30%. Moreover, in data set [2], the activity was half-maximal at 222 ± 81 nM (AC50) and the Emax was found to be 297 ± 22%.
`Cc1ccc2c3cnn(Cc4ccccc4)c(=O)c3n(C)c2c1` [Compound 1]: at human recombinant PKM2, the half-maximal activity concentration (AC50) came out at 23 ± 4 nM and the Emax was found to be 224 ± 9%. Also, in data set [1], the solubility at 24 h is below 0.01 µM. Further, in data set [2], the AC50 worked out at 175 ± 64 nM and the Emax was 219 ± 16%.
`Cc1cccc(Cn2ncc3c4cc(F)c(CN5CCOCC5)cc4n(C)c3c2=O)n1` [Compound 16]: on human recombinant PKM2, the AC50 came to 65 ± 8 nM and the Emax is 224 ± 8%. Moreover, in data set [3], the solubility at 24 h turned out to be 397 µM (≈ 167 µg/mL). For the same compound, in data set [2], the activity was half-maximal at 162 ± 46 nM (AC50) and the Emax is 268 ± 15%.
Consider `Cn1c2cc([S+](C)[O-])ccc2c2cnn(Cc3ccccc3)c(=O)c21` (stereo not shown) [Compound 3], for which the AC50 at human recombinant PKM2 came out at 47 ± 10 nM; in data set [2], 104 ± 32 nM. Besides, the Emax came out at 279 ± 16% at human recombinant PKM2 and 280 ± 17% in data set [2]. For the same compound, in data set [1], the solubility at 24 h was 12.1 µM (≈ 4.25 µg/mL).
